Assay: xn = mol fraction of the nth substance listed
Details: Liquid, Other PVT measurement

C=CC [propene] + CCCCCC
Details | mass density [kg/m3]
325.5 K, 6800 kPa, x1 = 0.8985 | 488.5
325.5 K, 10700 kPa, x1 = 0.8985 | 500.7
325.5 K, 13800 kPa, x1 = 0.8985 | 508.3
325.5 K, 16100 kPa, x1 = 0.8985 | 513.5
325.5 K, 20900 kPa, x1 = 0.8985 | 523.6
325.5 K, 27600 kPa, x1 = 0.8985 | 535.1
325.5 K, 34300 kPa, x1 = 0.8985 | 544.8
325.5 K, 41300 kPa, x1 = 0.8985 | 554.1
325.5 K, 48200 kPa, x1 = 0.8985 | 561.7
325.5 K, 51600 kPa, x1 = 0.8985 | 566.7
325.5 K, 55000 kPa, x1 = 0.8985 | 569.5
325.5 K, 58400 kPa, x1 = 0.8985 | 574.2
325.5 K, 61800 kPa, x1 = 0.8985 | 576.8
325.5 K, 64200 kPa, x1 = 0.8985 | 580.1
325.5 K, 67100 kPa, x1 = 0.8985 | 582.4
370.2 K, 5200 kPa, x1 = 0.9003 | 385.2
370.2 K, 5900 kPa, x1 = 0.9003 | 392.1
370.2 K, 7300 kPa, x1 = 0.9003 | 406
370.2 K, 10700 kPa, x1 = 0.9003 | 429.7
370.2 K, 14200 kPa, x1 = 0.9003 | 447.3
370.2 K, 17300 kPa, x1 = 0.9003 | 459.2
370.2 K, 20800 kPa, x1 = 0.9003 | 469.1
370.2 K, 24100 kPa, x1 = 0.9003 | 478.3
370.2 K, 31300 kPa, x1 = 0.9003 | 495.2
370.2 K, 38000 kPa, x1 = 0.9003 | 508.5
370.2 K, 44600 kPa, x1 = 0.9003 | 519.7
370.2 K, 46900 kPa, x1 = 0.9003 | 523.6
370.2 K, 48000 kPa, x1 = 0.9003 | 523.6
370.2 K, 50600 kPa, x1 = 0.9003 | 529.1
370.2 K, 51400 kPa, x1 = 0.9003 | 529.1
370.2 K, 57800 kPa, x1 = 0.9003 | 538.5
370.2 K, 61800 kPa, x1 = 0.9003 | 544.3
370.2 K, 67100 kPa, x1 = 0.9003 | 550.3
374.1 K, 2800 kPa, x1 = 0.606 | 465.7
374.1 K, 2900 kPa, x1 = 0.606 | 467
374.1 K, 3800 kPa, x1 = 0.606 | 471.2
374.1 K, 5500 kPa, x1 = 0.606 | 479
374.1 K, 7300 kPa, x1 = 0.606 | 486.2
374.1 K, 10600 kPa, x1 = 0.606 | 497.9
374.1 K, 17400 kPa, x1 = 0.606 | 515.3
374.1 K, 24000 kPa, x1 = 0.606 | 528.5
374.1 K, 31000 kPa, x1 = 0.606 | 540.7
374.1 K, 37900 kPa, x1 = 0.606 | 551.3
374.1 K, 38000 kPa, x1 = 0.606 | 551.7
374.1 K, 44700 kPa, x1 = 0.606 | 560.9
374.1 K, 51300 kPa, x1 = 0.606 | 569.2
374.1 K, 58100 kPa, x1 = 0.606 | 577.4
374.1 K, 63300 kPa, x1 = 0.606 | 583.4
374.1 K, 66900 kPa, x1 = 0.606 | 587.4
423.6 K, 16600 kPa, x1 = 0.9003 | 385.2
423.6 K, 17400 kPa, x1 = 0.9003 | 389.1
423.6 K, 20800 kPa, x1 = 0.9003 | 408.2
423.6 K, 24300 kPa, x1 = 0.9003 | 424
423.6 K, 31200 kPa, x1 = 0.9003 | 449.1
423.6 K, 37900 kPa, x1 = 0.9003 | 462.3
423.6 K, 44800 kPa, x1 = 0.9003 | 479.8
423.6 K, 51600 kPa, x1 = 0.9003 | 493
423.6 K, 58300 kPa, x1 = 0.9003 | 504.1
423.6 K, 59400 kPa, x1 = 0.9003 | 504.8
423.6 K, 63700 kPa, x1 = 0.9003 | 512.3
423.6 K, 67100 kPa, x1 = 0.9003 | 516.8
424 K, 10100 kPa, x1 = 0.606 | 427.5
424 K, 17500 kPa, x1 = 0.606 | 462.7
424 K, 24300 kPa, x1 = 0.606 | 484.2
424 K, 30800 kPa, x1 = 0.606 | 500.6
424 K, 37900 kPa, x1 = 0.606 | 514.3
424 K, 44700 kPa, x1 = 0.606 | 523.9
424 K, 51400 kPa, x1 = 0.606 | 534.9
424 K, 58300 kPa, x1 = 0.606 | 546
424 K, 63000 kPa, x1 = 0.606 | 551
424 K, 66900 kPa, x1 = 0.606 | 556
424.7 K, 4800 kPa, x1 = 0.4466 | 433.6
424.7 K, 7200 kPa, x1 = 0.4466 | 448.4
424.7 K, 10700 kPa, x1 = 0.4466 | 467.6
424.7 K, 17400 kPa, x1 = 0.4466 | 492.5
424.7 K, 21000 kPa, x1 = 0.4466 | 502.4
424.7 K, 24300 kPa, x1 = 0.4466 | 511.5
424.7 K, 31000 kPa, x1 = 0.4466 | 525
424.7 K, 37800 kPa, x1 = 0.4466 | 537.6
424.7 K, 44700 kPa, x1 = 0.4466 | 548.4
424.7 K, 51500 kPa, x1 = 0.4466 | 558.4
424.7 K, 58300 kPa, x1 = 0.4466 | 567.4
424.7 K, 63900 kPa, x1 = 0.4466 | 573.9
424.7 K, 67500 kPa, x1 = 0.4466 | 578.1
425 K, 1800 kPa, x1 = 0.1414 | 494.2
425 K, 3700 kPa, x1 = 0.1414 | 504.2
425 K, 5100 kPa, x1 = 0.1414 | 510.4
425 K, 7000 kPa, x1 = 0.1414 | 517.7
425 K, 10400 kPa, x1 = 0.1414 | 528.7
425 K, 17300 kPa, x1 = 0.1414 | 546.6
425 K, 17500 kPa, x1 = 0.1414 | 547.3
425 K, 20600 kPa, x1 = 0.1414 | 553.9
425 K, 24100 kPa, x1 = 0.1414 | 561.4
425 K, 27600 kPa, x1 = 0.1414 | 567.6
425 K, 30900 kPa, x1 = 0.1414 | 573.2
425 K, 34300 kPa, x1 = 0.1414 | 578.9
425 K, 37800 kPa, x1 = 0.1414 | 584.7
425 K, 41100 kPa, x1 = 0.1414 | 589.1
425 K, 44600 kPa, x1 = 0.1414 | 594.3
425 K, 51900 kPa, x1 = 0.1414 | 603.8
425 K, 54400 kPa, x1 = 0.1414 | 607.1
425 K, 58600 kPa, x1 = 0.1414 | 612.3
425 K, 61800 kPa, x1 = 0.1414 | 615.7
425 K, 63600 kPa, x1 = 0.1414 | 617.9
425 K, 66700 kPa, x1 = 0.1414 | 621
500.9 K, 12400 kPa, x1 = 0.1414 | 449.6
500.9 K, 13900 kPa, x1 = 0.1414 | 457.6
500.9 K, 20800 kPa, x1 = 0.1414 | 486.8
500.9 K, 24600 kPa, x1 = 0.1414 | 500.5
500.9 K, 27500 kPa, x1 = 0.1414 | 508.9
500.9 K, 31000 kPa, x1 = 0.1414 | 517.7
500.9 K, 37300 kPa, x1 = 0.1414 | 531.3
500.9 K, 37900 kPa, x1 = 0.1414 | 531.3
500.9 K, 41400 kPa, x1 = 0.1414 | 537.5
500.9 K, 44700 kPa, x1 = 0.1414 | 543.2
500.9 K, 44800 kPa, x1 = 0.1414 | 543.5
500.9 K, 47100 kPa, x1 = 0.1414 | 549
500.9 K, 48100 kPa, x1 = 0.1414 | 549
500.9 K, 51500 kPa, x1 = 0.1414 | 554.6
500.9 K, 54900 kPa, x1 = 0.1414 | 559.9
500.9 K, 58400 kPa, x1 = 0.1414 | 565.4
500.9 K, 61800 kPa, x1 = 0.1414 | 569.8
500.9 K, 64600 kPa, x1 = 0.1414 | 574
500.9 K, 67400 kPa, x1 = 0.1414 | 577.4
501 K, 7900 kPa, x1 = 0.4466 | 293.3
501 K, 9200 kPa, x1 = 0.606 | 230.6
501 K, 9700 kPa, x1 = 0.4466 | 331
501 K, 10100 kPa, x1 = 0.4466 | 330.6
501 K, 10700 kPa, x1 = 0.606 | 272.7
501 K, 12400 kPa, x1 = 0.606 | 306.1
501 K, 12600 kPa, x1 = 0.4466 | 363.8
501 K, 17200 kPa, x1 = 0.4466 | 401.7
501 K, 17300 kPa, x1 = 0.606 | 362
501 K, 20700 kPa, x1 = 0.606 | 386.4
501 K, 21900 kPa, x1 = 0.4466 | 428.7
501 K, 22000 kPa, x1 = 0.4466 | 433.3
501 K, 24000 kPa, x1 = 0.4466 | 436.5
501 K, 24400 kPa, x1 = 0.4466 | 440.8
501 K, 25200 kPa, x1 = 0.606 | 411.3
501 K, 29000 kPa, x1 = 0.606 | 429
501 K, 31000 kPa, x1 = 0.606 | 435.7
501 K, 31200 kPa, x1 = 0.4466 | 463.6
501 K, 34600 kPa, x1 = 0.4466 | 473.3
501 K, 37900 kPa, x1 = 0.4466 | 482.2
501 K, 37900 kPa, x1 = 0.606 | 455.7
501 K, 44800 kPa, x1 = 0.606 | 473.6
501 K, 45000 kPa, x1 = 0.4466 | 497.7
501 K, 51400 kPa, x1 = 0.606 | 485.9
501 K, 51600 kPa, x1 = 0.4466 | 509.9
501 K, 57900 kPa, x1 = 0.4466 | 519.9
501 K, 58400 kPa, x1 = 0.606 | 500
501 K, 63000 kPa, x1 = 0.606 | 506.6
501 K, 63200 kPa, x1 = 0.4466 | 527.6
501 K, 67000 kPa, x1 = 0.606 | 512.8
501 K, 67200 kPa, x1 = 0.4466 | 533.2
584.6 K, 29000 kPa, x1 = 0.1414 | 449.8
584.6 K, 31100 kPa, x1 = 0.1414 | 456.9
584.6 K, 34700 kPa, x1 = 0.1414 | 468.2
584.6 K, 37900 kPa, x1 = 0.1414 | 478
584.6 K, 41400 kPa, x1 = 0.1414 | 487.3
584.6 K, 44800 kPa, x1 = 0.1414 | 495.6
584.6 K, 45100 kPa, x1 = 0.1414 | 496.5
584.6 K, 48100 kPa, x1 = 0.1414 | 503.4
584.6 K, 51700 kPa, x1 = 0.1414 | 510.7
584.6 K, 55100 kPa, x1 = 0.1414 | 517.4
584.6 K, 58400 kPa, x1 = 0.1414 | 523.9
584.6 K, 61800 kPa, x1 = 0.1414 | 529
584.6 K, 64200 kPa, x1 = 0.1414 | 532.9
584.6 K, 67400 kPa, x1 = 0.1414 | 537.5

From the NIST ThermoML archive (doi:10.1021/acs.jced.6b00181)
